Reference: ChEMBL document CHEMBL3797124, “Synthesis of azepino[4,5-b]indol-4-ones via MCR/free radical cyclization and in vitro-in silico studies as 5-Ht₆R ligands” (Bioorg Med Chem Lett, 2016)

What was measured:
[1] = target: 5-hydroxytryptamine receptor 6 (Rattus norvegicus) (UniProt P31388); experiment: Displacement of [3H]-LSD from rat 5-Ht6 receptor expressed in HEK cells at 10 uM after 60 mins by liquid scintillation counting; format: cell-based; details: HEK293
[2] = target: 5-hydroxytryptamine receptor 6 (Rattus norvegicus, UniProt P31388); experiment: Displacement of [3H]-LSD from rat 5-Ht6 receptor expressed in HEK cells after 60 mins by liquid scintillation counting; format: cell-based, HEK293
Chain of 5-hydroxytryptamine receptor 6 (P31388 whole entry): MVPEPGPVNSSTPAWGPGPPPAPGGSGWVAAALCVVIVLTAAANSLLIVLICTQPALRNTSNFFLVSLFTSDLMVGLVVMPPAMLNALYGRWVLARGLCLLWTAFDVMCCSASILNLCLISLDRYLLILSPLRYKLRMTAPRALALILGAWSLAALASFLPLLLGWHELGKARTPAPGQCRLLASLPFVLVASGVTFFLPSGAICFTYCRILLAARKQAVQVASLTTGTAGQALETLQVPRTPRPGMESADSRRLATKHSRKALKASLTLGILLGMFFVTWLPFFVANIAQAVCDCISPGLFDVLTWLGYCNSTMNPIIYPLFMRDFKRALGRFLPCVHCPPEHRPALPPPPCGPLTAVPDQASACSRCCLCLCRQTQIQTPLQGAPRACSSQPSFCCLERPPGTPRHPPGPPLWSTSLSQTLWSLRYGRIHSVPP

Chain of 5-hydroxytryptamine receptor 6 (Rattus norvegicus) (P31388 whole entry): as above

| SMILES | inhibition [1] [%] | log(%) [1] | Ki [2] [nM] |
| --- | --- | --- | --- |
| CC(C)(C)NC(=O)C(c1ccc(Br)cc1)N1CCc2c([nH]c3ccccc23)CC1=O (stereo not drawn) | 66 | 1.82 |  |
| CC(C)(C)n1nnnc1C(c1ccc(Cl)cc1)N1CCc2c([nH]c3ccccc23)CC1=O (stereo not drawn) | 41 | 1.04 |  |
| CN(C)c1ccc(C(C(=O)NC(C)(C)C)N2CCc3c([nH]c4ccccc34)CC2=O)cc1 (stereo not drawn) | 16 | 1.2 |  |
| COc1cccc(C(c2nnnn2C(C)(C)C)N2CCc3c([nH]c4ccccc34)CC2=O)c1OC (stereo not drawn) | 16 | 1.2 |  |
| CSc1ccc2c(c1)C(N1CCN(C)CC1)Cc1ccccc1S2 (stereo not drawn) | 100 | 2 |  |
| CN(C)c1ccc(C(c2nnnn2C(C)(C)C)N2CCc3c([nH]c4ccccc34)CC2=O)cc1 (stereo not drawn) | 1 | 0 |  |
| Cc1cccc(C)c1-n1nnnc1C(c1ccc(Cl)cc1)N1CCc2c([nH]c3ccccc23)CC1=O (stereo not drawn) | 19 | 1.28 |  |
| CC(C)(C)NC(=O)C(c1ccc2c(c1)OCO2)N1CCc2c([nH]c3ccccc23)CC1=O (stereo not drawn) | 7 | 0.85 |  |
| CC(C)(C)n1nnnc1C(c1ccc(Br)cc1)N1CCc2c([nH]c3ccccc23)CC1=O (stereo not drawn) | 57 | 1.76 |  |
| CC(C)(C)n1nnnc1C(c1ccc2c(c1)OCO2)N1CCc2c([nH]c3ccccc23)CC1=O (stereo not drawn) | 12 | 1.08 |  |

Next, values leading:

| inhibition [1] [%] | log(%) [1] | Ki [2] [nM] | SMILES |
| --- | --- | --- | --- |
| 7 | 0.85 |  | Cc1cccc(C)c1NC(=O)C(C1CCCCC1)N1CCc2c([nH]c3ccccc23)CC1=O (stereo not drawn) |
| 17 | 1.23 |  | O=C1Cc2[nH]c3ccccc3c2CCN1C(c1ccc(Cl)cc1)c1nnnn1C1CCCCC1 (stereo not drawn) |
| 21 | 1.32 |  | Cc1cccc(C)c1NC(=O)C(c1ccc(Cl)cc1)N1CCc2c([nH]c3ccccc23)CC1=O (stereo not drawn) |
| 3 | 0.48 |  | Cc1cccc(C)c1-n1nnnc1C(C1CCCCC1)N1CCc2c([nH]c3ccccc23)CC1=O (stereo not drawn) |
| 2 | 0.3 |  | CC(C)(C)n1nnnc1C(C1CCCCC1)N1CCc2c([nH]c3ccccc23)CC1=O (stereo not drawn) |
| 10 | 1 |  | CC(C)(C)NC(=O)C(C1CCCCC1)N1CCc2c([nH]c3ccccc23)CC1=O (stereo not drawn) |
|  | 1.98 | 211 | COc1cccc(C(C(=O)NC(C)(C)C)N2CCc3c([nH]c4ccccc34)CC2=O)c1OC (stereo not drawn) |
| 42 | 1.62 |  | CC(C)(C)NC(=O)C(c1ccc(Cl)cc1)N1CCc2c([nH]c3ccccc23)CC1=O (stereo not drawn) |
| 15 | 1.18 |  | O=C(NC1CCCCC1)C(c1ccc(Cl)cc1)N1CCc2c([nH]c3ccccc23)CC1=O (stereo not drawn) |
